Converted amounts (≈) assume the structure as drawn.
What was measured:
[1] = Selectivity index, ratio of CC50 for cytotoxicity against African green monkey Vero cells to MIC for antitubercular activity against Mycobacterium tuberculosis H37Ra; type: toxicity, cell-based; conditions: read-out: Selectivity Index
[2] = test system: Mycobacterium tuberculosis; experiment: Antitubercular activity against Mycobacterium tuberculosis H37Ra assessed as inhibition of bacterial growth by microplate alamar blue assay; type: functional
Leishmania major [3] = experiment: Antileishmanial activity against Leishmania major amastigotes assessed as inhibition of parasite growth incubated for 72 hrs by resazurin reagent based ELISA; type: functional, organism-based
[4] = Acute toxicity in mouse assessed as signs of toxicity at 25 to 150 mg/kg,po administrated for 3 days; type: organism-based; conditions: in vivo, 72 h, dose 25-150 mg/kg, time 3 day
[5] = Selectivity index, ratio of CC50 for cytotoxicity against African green monkey Vero cells to IC50 for antimalarial activity against chloroquine-resistant Plasmodium falciparum RKL9; type: toxicity, cell-based; conditions: read-out: Ratio CC50/IC50
Plasmodium berghei [6] = experiment: Antimalarial activity against Plasmodium berghei ANKA infected in mouse assessed as parasitemia at 48.4 microM/Kg,po measured after 96 hrs by giemsa staining analysis relative to control; type: functional; conditions: at 48.4 µmol/kg
[7] = Cytotoxicity against African green monkey Vero cells incubated for 72 hrs by crystal violet staining based assay; type: toxicity, cell-based; conditions: chlorocebus sabaeus
Leishmania major [8] = experiment: Antileishmanial activity against Leishmania major promastigotes assessed as inhibition of parasite growth incubated for 48 hrs by alamar blue reagent based ELISA; type: functional, organism-based
Plasmodium berghei [9] = experiment: Antimalarial activity against Plasmodium berghei ANKA infected in mouse assessed as reduction in parasite growth at 48.4 microM/Kg,po measured after 96 hrs by giemsa staining analysis; type: functional; design: scale not given: the % may be the effect or the level left; conditions: at 48.4 µmol/kg
Leishmania major [10] = experiment: Antileishmanial activity against Leishmania major promastigotes assessed as parasite survival incubated for 48 hrs in presence of 20 uM of folic acid by alamar blue reagent based ELISA relative to control; type: functional
Leishmania major [11] = experiment: Antileishmanial activity against Leishmania major promastigotes assessed as parasite survival incubated for 48 hrs in presence of 20 uM of folinic acid by alamar blue reagent based ELISA relative to control; type: functional
Leishmania major [12] = experiment: Antileishmanial activity against Leishmania major promastigotes assessed as parasite survival incubated for 48 hrs by alamar blue reagent based ELISA relative to control; type: functional
Leishmania major [13] = experiment: Antileishmanial activity against Leishmania major promastigotes assessed as parasite survival incubated for 48 hrs in presence of 100 uM of folic acid by alamar blue reagent based ELISA relative to control; type: functional
[14] = Selectivity index, ratio of CC50 for cytotoxicity against African green monkey Vero cells to IC50 for antileishmanial activity against Leishmania major; type: toxicity, cell-based; conditions: read-out: Ratio CC50/IC50
Plasmodium falciparum = experiment: Antimalarial activity against chloroquine-resistant Plasmodium falciparum RKL9 assessed as inhibition of parasite growth incubated for 24 hrs by giemsa staining analysis; type: functional, organism-based; conditions: RKL9, 24 h
[15] = Acute toxicity in mouse assessed as change in body weight at 25 to 150 mg/kg,po administrated for 3 days; type: organism-based; conditions: in vivo, 72 h, dose 25-150 mg/kg, time 3 day
Leishmania major [16] = experiment: Antileishmanial activity against Leishmania major promastigotes assessed as parasite survival incubated for 48 hrs in presence of 100 uM of folinic acid by alamar blue reagent based ELISA relative to control; type: functional
[17] = test system: Mycobacterium tuberculosis; experiment: Antitubercular activity against XDR Mycobacterium tuberculosis RCMB 2674 assessed as inhibition of bacterial growth by microplate alamar blue assay; type: functional
Plasmodium berghei [18] = experiment: Antimalarial activity against Plasmodium berghei ANKA infected in mouse assessed as mean survival time at 48.4 microM/Kg,po measured after 96 hrs; type: functional
Leishmania major [19] = experiment: Antileishmanial activity against Leishmania major promastigotes assessed as parasite survival at 100 uM incubated for 48 hrs in presence of 100 uM of folic acid by alamar blue reagent based ELISA relative to control
Leishmania major [20] = experiment: Antileishmanial activity against Leishmania major promastigotes assessed as parasite survival at 100 uM incubated for 48 hrs by alamar blue reagent based ELISA relative to control

SMILES | MIC [2] [µM] | IC50 (Leishmania major [3]) [µM] | Activity (Plasmodium berghei [6]) [%] | IC50 (Leishmania major [8]) [µM] | Activity (Plasmodium berghei [9]) [%] | IC50 (Plasmodium falciparum) [µM] | Survival (Plasmodium berghei [18]) [days] | also measured
COc1cc(-c2c3c([nH]c(=O)c2C#N)-c2ccccc2CC3)ccc1O | 90.7 (≈ 31.2 µg/mL) | 0.695 | 2 | 0.577 | 97.78 | 0.019 |  | selectivity ratio [1]: 4; Activity [4]: Non-Toxic; selectivity ratio [5]: 18300; CC50 at 72 h [7]: 363 µM; Survival (Leishmania major [10]): 76%; Survival (Leishmania major [11]): 78%; Survival (Leishmania major [12]): 22%; Survival (Leishmania major [13]): 85%; selectivity ratio [14]: 629; Activity [15]: Non-Toxic; Survival (Leishmania major [16]): 89%
N#Cc1c(-c2cccs2)c2c([nH]c1=O)-c1ccccc1CC2 | 12.8 (≈ 3.9 µg/mL) | 4.86 | 2 | 2.64 | 97.78 | 0.021 |  | Activity [4]: Non-Toxic; Activity [15]: Non-Toxic
COc1ccc(OC)c(-c2c3c([nH]c(=O)c2C#N)-c2ccccc2CC3)c1 | 5.44 (≈ 1.95 µg/mL) | 2.98 | 5 | 2.33 | 94.44 | 0.089 |  | MIC [17]: 175 µM (≈ 62.6 µg/mL)
COc1ccc(-c2c3c([nH]c(=O)c2C#N)-c2ccccc2CC3)cc1O | 5.66 (≈ 1.95 µg/mL) | 3.7 | 33 | 1.4 | 63.33 |  | 7.33 | MIC [17]: 182 µM (≈ 62.6 µg/mL)
N#Cc1c(O)nc2c(c1-c1cccc([N+](=O)[O-])c1)CCc1ccccc1-2 | 5.67 (≈ 1.95 µg/mL) | 3.97 | 28 | 2.89 | 68.89 |  | 7.66 | MIC [17]: 91.1 µM (≈ 31.3 µg/mL)
COc1cc(Cc2cnc(N)nc2N)cc(OC)c1OC [TRIMETHOPRIM] |  |  |  |  |  |  |  | survival at 100 µM (Leishmania major [19]): 99%; survival at 100 µM (Leishmania major [20]): 71%
COc1cccc(-c2c3c([nH]c(=O)c2C#N)-c2ccccc2CC3)c1 | 23.8 (≈ 7.81 µg/mL) | 4.88 | 11 | 4.15 | 87.78 |  | 10.66 | 
NNC(=O)c1ccncc1 [ISONIAZID] | 0.875 (≈ 0.12 µg/mL) |  |  |  |  |  |  | 
N#Cc1c(-c2ccccc2[N+](=O)[O-])c2c([nH]c1=O)-c1ccccc1CC2 |  | 5.63 | 17 | 4.22 | 81.11 |  | 8.83 | 
COc1ccc(-c2c3c([nH]c(=O)c2C#N)-c2ccccc2CC3)cc1 | 11.9 (≈ 3.9 µg/mL) | 4.7 | 26 | 3.9 | 71.11 |  | 9.66 | 
CC(=O)N1CCC(C(=O)NCc2ccc3c(c2)-c2[nH]c(=O)c(C#N)c(-c4cc(Cl)ccc4Cl)c2CC3)CC1 | 28.4 (≈ 15.6 µg/mL) | 0.502 | 3 | 0.409 | 96.67 | 0.039 |  | selectivity ratio [1]: 16; Activity [4]: Non-Toxic; selectivity ratio [5]: 11800; CC50 at 72 h [7]: 455 µM; Survival (Leishmania major [10]): 78%; Survival (Leishmania major [11]): 82%; Survival (Leishmania major [12]): 24%; Survival (Leishmania major [13]): 88%; selectivity ratio [14]: 1110; Activity [15]: Non-Toxic; Survival (Leishmania major [16]): 94%
CCc1nc(N)nc(N)c1-c1ccc(Cl)cc1 [PYRIMETHAMINE] |  |  | 0 |  | 100 | 0.013 |  | 
N#Cc1c(-c2ccccc2Br)c2c([nH]c1=O)-c1ccccc1CC2 | 10.3 (≈ 3.9 µg/mL) | 3.83 | 36 | 2.11 | 60 |  | 7.33 | 
CC(=O)N1CCC(C(=O)NCc2ccc3c(c2)-c2[nH]c(=O)c(C#N)c(-c4cc(C(F)(F)F)ccc4Cl)c2CC3)CC1 | 53.6 (≈ 31.2 µg/mL) | 3.26 | 56 | 1.24 | 37.78 |  | 5.66 | 
COc1cc(-c2c3c([nH]c(=O)c2C#N)-c2ccccc2CC3)cc(OC)c1OC | 20.1 (≈ 7.81 µg/mL) | 3.68 | 8 | 2.52 | 91.11 | 0.096 | 12.4 | 
N#Cc1c(-c2ccc(Cl)cc2Cl)c2c([nH]c1=O)-c1ccccc1CC2 | 5.31 (≈ 1.95 µg/mL) | 6 | 32 | 5.3 | 64.44 |  | 4.5 | MIC [17]: > 342 µM
Cc1cccc(-c2c3c([nH]c(=O)c2C#N)-c2ccccc2CC3)c1 | 100 (≈ 31.2 µg/mL) | 5.58 | 18 | 3.46 | 80 |  | 9.33 | 
COc1ccc(-c2c3c([nH]c(=O)c2C#N)-c2ccccc2CC3)cc1OC | 10.9 (≈ 3.9 µg/mL) | 4.68 | 38 | 2.24 | 57.78 |  | 8.66 | 
CCN(CC)CCCC(C)Nc1ccnc2cc(Cl)ccc12.O=P(O)(O)O.O=P(O)(O)O (configuration not stated) [CHLOROQUINE PHOSPHATE] |  |  | 0 |  | 100 |  | 13.12 | 
COc1ccccc1-c1c2c([nH]c(=O)c1C#N)-c1ccccc1CC2 | 2.98 (≈ 0.979 µg/mL) | 6.29 | 42 | 5.49 | 53.33 |  | 6.5 | selectivity ratio [1]: 127; CC50 at 72 h [7]: 381 µM; MIC [17]: 23.8 µM (≈ 7.82 µg/mL); selectivity ratio [14]: 60.6

— ChEMBL document CHEMBL5620375, “Tetrahydrobenzo[h]quinoline derivatives as a novel chemotype for dual antileishmanial-antimalarial activity graced with antitubercular activity: Design, synthesis and biological evaluation” (Eur J Med Chem, 2023)
